Assay results reported in paper PMC10831071, “Reaction hijacking inhibition of Plasmodium falciparum asparagine tRNA synthetase” (Nature Communications, 2024).
Several values for one entry are separate records, joined by “and”; a condition that tells them apart may be missing. Equal entries are not always repeated. Where two headings read alike, the source gives them in different places.

Experiments:
[1] = tested on: P. falciparum (3D7); assay: Activity against P. falciparum 3D7 cultures, 72 h (PfLDH growth inhibition / flow cytometry); type: cell-based, Plasmodium falciparum; conditions: Plasmodium falciparum, 3D7, 72 h, read-out: Pf3D7 IC50 (72h), individual biological repeats (source data of Table 1)
Procedure: Antimalarial activity against P. falciparum 3D7 was tested by TCGLS, Kolkata, India, using the lactate dehydrogenase (PfLDH) growth inhibition assay. […] Plates were shaken to ensure mixing and were placed in the dark at 21 °C for 20 min. […] P. falciparum strain (3D7) was obtained from BEI Resources.
(§1) Viability was assessed in the second cycle by flow cytometry, following labeling with 2 μM Syto-61 (Thermo Fisher Scientific)[48],[49]. Viability represents the parasitemia normalized to untreated and “kill” controls that were treated with 2 μM dihydroartemisinin (DHA; Sigma-Aldrich) for 48–72 h. For drug pulse assays, tightly synchronized Cam3.II-rev[50] parasites (1–1.5% parasitemia, 0.2% final hematocrit) were added to the plates and incubated for 6 h. Drugs were removed and the parasitemia assessed in the trophozoite stage of the next cycle.

[2] = tested on: protein translation in P. falciparum trophozoites (Cam3.II-rev); assay: Protein translation assay (OPP incorporation); type: cell-based, Plasmodium falciparum; conditions: for Translation: individual experiments, 0 nM = 100; for IC50: read-out: IC50 (Translation)
Procedure: O-propargyl-puromycin (OPP) (Abcam) was added to the culture and incubated for a further 2 h. Parasites were washed three times in 1 × PBS (Gibco™) and fixed with 4% formaldehyde (Polysciences) and 0.02% glutaraldehyde (Sigma) in 1 × PBS for 20 min at room temperature (RT). Cells were washed two times with buffer A (3% human serum in 1 × PBS). Pellets were permeabilized in buffer A containing 0.05% Triton® X-100 and washed two times with buffer A. Fixed-permeabilized cells were subjected to copper-catalyzed azide–alkyne cycloaddition (CuAAC) at 37 °C for 1 h in the presence of 0.1 mM CuSO4, 0.5 mM THPTA, 5 mM sodium ascorbate, and 0.1 μM Alexa Fluor 488 azide in buffer A. Pellets were washed four times in buffer A and resuspended in buffer A containing 25 μg/ml propidium iodide (Invitrogen™). Cells were interrogated by flow cytometry (FACS Canto II; BD Biosciences, San Jose, CA) using FITC and Cy™5.5 channels.

[3] = tested on: P. falciparum Cam3.II-rev; assay: Drug pulse (6 h) viability assay; type: cell-based, Plasmodium falciparum; conditions: for IC50: read-out: IC50 (Viability)
Procedure: as §1

[4] = target: T1, HsAsnRS (Homo sapiens, UniProt O43776); assay: ATP consumption assay (Kinase-Glo), HsAsnRS; type: biochemical; conditions: for ATP consumption: HsAsnRS, normalised to 1 (Fig 3E)
T1 construct: HsAsnRS (residues M1–P548) and CDHsAsnRS (residues A98–P548); His6 (N, cleaved yes); made in house; host or cells: E. coli BL21 (DE3), pET11a
T1 sequence (O43776 1-548): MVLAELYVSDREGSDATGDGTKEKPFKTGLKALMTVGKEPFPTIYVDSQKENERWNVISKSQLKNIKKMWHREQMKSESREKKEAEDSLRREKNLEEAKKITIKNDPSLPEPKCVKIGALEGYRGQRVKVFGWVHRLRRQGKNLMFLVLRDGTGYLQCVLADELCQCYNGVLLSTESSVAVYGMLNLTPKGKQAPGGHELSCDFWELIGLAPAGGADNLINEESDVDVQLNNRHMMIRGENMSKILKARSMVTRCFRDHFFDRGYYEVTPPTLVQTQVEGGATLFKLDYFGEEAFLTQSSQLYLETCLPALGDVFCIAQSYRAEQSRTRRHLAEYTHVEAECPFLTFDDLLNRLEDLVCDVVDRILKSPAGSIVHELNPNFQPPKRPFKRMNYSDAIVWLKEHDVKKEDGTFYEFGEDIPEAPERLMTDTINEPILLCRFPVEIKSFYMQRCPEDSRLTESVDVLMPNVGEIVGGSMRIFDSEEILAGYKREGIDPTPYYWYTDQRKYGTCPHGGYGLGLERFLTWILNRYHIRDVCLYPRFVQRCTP

[5] = target: PfAsnRS (Plasmodium falciparum, UniProt O96198); assay: biochemical; conditions: for ATP consumption: PfAsnRS
Sequence of PfAsnRS (O96198 entry or part of it): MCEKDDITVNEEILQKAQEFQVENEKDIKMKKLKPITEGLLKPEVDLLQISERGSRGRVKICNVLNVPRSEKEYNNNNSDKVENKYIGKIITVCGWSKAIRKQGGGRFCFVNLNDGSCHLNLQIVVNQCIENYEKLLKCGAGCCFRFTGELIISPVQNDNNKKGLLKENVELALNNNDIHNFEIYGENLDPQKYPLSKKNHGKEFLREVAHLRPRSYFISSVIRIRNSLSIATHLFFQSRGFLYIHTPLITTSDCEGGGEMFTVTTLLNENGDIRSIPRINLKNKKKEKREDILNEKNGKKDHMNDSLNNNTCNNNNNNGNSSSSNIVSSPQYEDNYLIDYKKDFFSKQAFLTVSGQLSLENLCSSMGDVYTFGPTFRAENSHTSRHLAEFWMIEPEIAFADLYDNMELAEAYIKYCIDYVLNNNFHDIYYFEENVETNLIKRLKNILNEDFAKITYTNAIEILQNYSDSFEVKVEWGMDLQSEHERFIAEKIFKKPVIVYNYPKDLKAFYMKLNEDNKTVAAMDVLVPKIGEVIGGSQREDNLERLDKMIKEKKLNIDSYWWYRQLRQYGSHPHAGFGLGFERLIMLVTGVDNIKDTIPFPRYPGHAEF

[6] = 78.1 nM, 6 h pulse, individual experiments, 0 nM = 100
[7] = 156.3 nM, 6 h pulse, individual experiments, 0 nM = 100
[8] = 312.5 nM, 6 h pulse, individual experiments, 0 nM = 100
[9] = 625 nM, 6 h pulse, individual experiments, 0 nM = 100
[10] = 1250 nM, 6 h pulse, individual experiments, 0 nM = 100
[11] = 2500 nM, 6 h pulse, individual experiments, 0 nM = 100
[12] = 5000 nM, 6 h pulse, individual experiments, 0 nM = 100
[13] = 10000 nM, 6 h pulse, individual experiments, 0 nM = 100
[14] = 20000 nM, 6 h pulse, individual experiments, 0 nM = 100

## Cc1ccc(S(N)(=O)=O)cc1-c1cc2ncnc(N)c2s1 [OSM-E-32]
[1]
  IC50: 8330 nM

## CC1(C)N=C(N)N=C(N)N1OCCCOc1cc(Cl)c(Cl)cc1Cl [WR99210]
[2]; 78.1 nM, 6 h exposure
  Translation: 90.9036 and 76.9712 and 89.4018
[2]; 156.3 nM, 6 h exposure
  Translation: 89.4578 and 82.2873 and 81.3601
[2]; 312.5 nM, 6 h exposure
  Translation: 91.0241 and 91.4005 and 91.4867
[2]; 625 nM, 6 h exposure
  Translation: 83.5542 and 90.7751 and 99.6277
[2]; 1250 nM, 6 h exposure
  Translation: 82.5301 and 79.1155 and 98.3867
[2]; 2500 nM, 6 h exposure
  Translation: 84.3976 and 81.0364 and 102.259
[2]; 5000 nM, 6 h exposure
  Translation: 88.5542 and 92.6513 and 94.4155
[2]; 10000 nM, 6 h exposure
  Translation: 97.2892 and 85.5484 and 98.6845
[2]; 20000 nM, 6 h exposure
  Translation: 112.47 and 92.0706 and 98.0392
[2]; 40000 nM, 6 h exposure
  Translation: 103.313 and 81.0364 and 102.259
[2]; 6 h exposure, OPP in last 2 h, Cam3.II-rev trophozoites
  IC50: > 1000 nM
[3]; [6]
  Viability: 90.9718 and 69.2733 and 98.7384
[3]; [7]
  Viability: 76.1805 and 35.562 and 55.9172
[3]; [8]
  Viability: 32.1885 and 5.756 and 17.0102
[3]; [9]
  Viability: 6.692 and 4.516 and 3.401
[3]; [10]
  Viability: 5.505 and 0.4167 and 0.2921
[3]; [11]
  Viability: 3.52 and 0.4893 and 0.1273
[3]; [12]
  Viability: 3.786 and 0.4893 and 2.194
[3]; [13]
  Viability: 2.477 and 1.7781 and 0.09123
[3]; [14]
  Viability: 0 and 0.969 and 1.737
[3]; 40000 nM, 6 h pulse, individual experiments, 0 nM = 100
  Viability: 3.358 and 0 (2×)
[3]; 6 h pulse, viability at trophozoite stage of next cycle
  IC50: 0.9 nM

## NC(=O)C[C@H](N)C(=O)NS(=O)(=O)c1cccc(-c2cc3ncnc(N)c3s2)c1 [Asn-OSM-S-106]
[4]; 0.1 μM Asn-OSM-S-106
  ATP consumption: 1 and 0.9164 and 0.9986
[4]; 0.3 μM Asn-OSM-S-106
  ATP consumption: 0.9525 and 1
[4]; 0.5 μM enzyme without tRNA (Fig. 3E)
  IC50: 12000 nM
[4]; 1 μM Asn-OSM-S-106
  ATP consumption: 0.8864 and 0.9489 and 0.9329
[4]; 3 μM Asn-OSM-S-106
  ATP consumption: 0.7684 and 0.8281 and 0.785
[4]; 10 μM Asn-OSM-S-106
  ATP consumption: 0.5231 and 0.5272 and 0.5151
[4]; 30 μM Asn-OSM-S-106
  ATP consumption: 0.2926 and 0.3365 and 0.2915
[4]; 100 μM Asn-OSM-S-106
  ATP consumption: 0.09965 and 0.131 and 0.08856
[5]; 0.005 μM Asn-OSM-S-106, 0 μM = 100 (Fig 3F), 0.005 µM
  ATP consumption: 96.6227 and 115.849 and 86.517 and 87.5323
[5]; 0.05 μM Asn-OSM-S-106, 0 μM = 100 (Fig 3F), 0.05 µM
  ATP consumption: 102.641 and 101.648 and 126.552 and 109.716 and 83.8806 and 85.0945
[5]; 0.1 μM Asn-OSM-S-106, normalised to 1 (Fig 3E), 0.1 µM
  ATP consumption: 0.9937 and 0.8109
[5]; 0.5 μM Asn-OSM-S-106, 0 μM = 100 (Fig 3F), 0.5 µM
  ATP consumption: 95.6169 and 98.8652 and 117.558 and 102.603 and 76.814 and 78.5601
[5]; 1 μM Asn-OSM-S-106, normalised to 1 (Fig 3E), 1 µM
  ATP consumption: 0.8236 and 0.8406
[5]; 3 μM Asn-OSM-S-106, normalised to 1 (Fig 3E), 3 µM
  ATP consumption: 0.3452 and 0.4265
[5]; 10 μM Asn-OSM-S-106, normalised to 1 (Fig 3E), 10 µM
  ATP consumption: 0.09706 and 0.1733

## Nc1ncnc2c1ncn2[C@@H]1O[C@H](COS(N)(=O)=O)[C@@H](O)[C@H]1O [AMS, adenosine 5’-O-sulfamate, reference compound]
[5]; 0.03 μM AMS, normalised to 1 (Fig 3D), 0.03 µM
  ATP consumption: 0.946
[5]; 0.1 μM AMS, normalised to 1 (Fig 3D), 0.1 µM
  ATP consumption: 0.5414 and 0.637
[5]; 0.3 μM AMS, normalised to 1 (Fig 3D), 0.3 µM
  ATP consumption: 0.3347 and 0.4652
[5]; 1 μM AMS, normalised to 1 (Fig 3D), 1 µM
  ATP consumption: 0.189 and 0.2604
[5]; 3 μM AMS, normalised to 1 (Fig 3D), 3 µM
  ATP consumption: 0.1468 and 0.18
[5]; 10 μM AMS, normalised to 1 (Fig 3D), 10 µM
  ATP consumption: 0.0653 and 0.08191
[5]; 30 μM AMS, normalised to 1 (Fig 3D), 30 µM
  ATP consumption: 0.09691 and 0.0585
[5]; IC50, ATP consumption, 0.05 μM PfAsnRS, E. coli tRNA present, 37 °C, 1 h (Fig. 3C, D)
  IC50: 190 nM

## C[C@@H]1C[C@@H]([C@H](O)CC2CC(=O)NC(=O)C2)C(=O)[C@@H](C)C1 [Cycloheximide]
[2]; 39.1 nM, 6 h exposure
  Translation: 91.0615 and 76.2984 and 81.7995
[2]; 78.1 nM, 6 h exposure
  Translation: 81.922 and 88.5493 and 60.1275
[2]; 156.3 nM, 6 h exposure
  Translation: 69.0756 and 65.574 and 56.5841
[2]; 312.5 nM, 6 h exposure
  Translation: 54.5569 and 51.3303 and 54.0173
[2]; 625 nM, 6 h exposure
  Translation: 34.3298 and 36.573 and 53.0328
[2]; 1250 nM, 6 h exposure
  Translation: 29.8359 and 24.3187 and 24.0049
[2]; 2500 nM, 6 h exposure
  Translation: 20.2838 and 21.5354 and 22.6499
[2]; 5000 nM, 6 h exposure
  Translation: 16.1089 and 19.5652 and 16.2965
[2]; 10000 nM, 6 h exposure
  Translation: 8.675 and 13.4553 and 5.495
[2]; 20000 nM, 6 h exposure
  Translation: 7.645 and 6.944 and 4.617
[2]; Plasmodium falciparum
  IC50: 331 nM
[3]; 39.1 nM, 6 h pulse, individual experiments, 0 nM = 100
  Viability: 97.4339 and 92.233
[3]; [6]
  Viability: 94.7793 and 98.0583
[3]; [7]
  Viability: 102.013 and 98.7864
[3]; [8]
  Viability: 97.9775 and 92.233
[3]; [9]
  Viability: 92.6066 and 91.9903
[3]; [10]
  Viability: 79.0045 and 78.3981
[3]; [11]
  Viability: 100.147 and 80.518 and 75
[3]; [12]
  Viability: 78.8213 and 75.2427
[3]; [13]
  Viability: 77.1877 and 75
[3]; [14]
  Viability: 95.0102 and 69.6652 and 71.1165
[3]; Plasmodium falciparum, 6 h, 39.1 nM, 6 h pulse, individual experiments, 0 nM = 100
  viability at 0.0391 µM: 108%
[3]; Plasmodium falciparum, 6 h, 78.1 nM, 6 h pulse, individual experiments, 0 nM = 100
  viability at 0.0781 µM: 95.9%
[3]; Plasmodium falciparum, 6 h, 156.3 nM, 6 h pulse, individual experiments, 0 nM = 100
  viability at 0.1563 µM: 109%
[3]; Plasmodium falciparum, 6 h, 312.5 nM, 6 h pulse, individual experiments, 0 nM = 100
  viability at 0.3125 µM: 104%
[3]; Plasmodium falciparum, 6 h, 625 nM, 6 h pulse, individual experiments, 0 nM = 100
  viability at 0.625 µM: 102%
[3]; Plasmodium falciparum, 6 h, 1250 nM, 6 h pulse, individual experiments, 0 nM = 100
  viability at 1.25 µM: 95%
[3]; Plasmodium falciparum, 6 h, 5000 nM, 6 h pulse, individual experiments, 0 nM = 100
  viability at 5 µM: 95.1%
[3]; Plasmodium falciparum, 6 h, 10000 nM, 6 h pulse, individual experiments, 0 nM = 100
  viability at 10 µM: 88.3%
[3]; Plasmodium falciparum, 6 h
  IC50: > 1000 nM
